According to patent US20230271947A1, “SALT AND CRYSTAL FORM OF KETOHEXOKINASE INHIBITOR AND USE THEREOF” (SHANDONG XUANZHU PHARMA CO., LTD., priority 2020, published 2023):
Each block holds one molecule with its values, some of them ahead of it.

Assay: Stability investigation of crystal forms A, B, C, D and the amorphous form of the compound of formula (1) (related substances by HPLC, moisture, XRD, DSC)
Assay type: physicochemical
Conditions: for Stability, testing conclusion: under the above conditions (all placement conditions of the study)
Protocol: (§1) 2.1 Investigation conditions for the crystal form A of the compound of formula (1): • placed at 105° C. for 5 days, opened, and sampled for testing on day 5; • placed at 60° C. for 10 days, opened/closed, and sampled for testing on day 10; • placed at 25° C. and RH 92.5% for 10 days, opened/closed, and sampled for testing on day 10; • placed at 40° C. and RH 75% for one month, opened/closed, and sampled for testing on the last day of the month; and • under illumination, employing a closed way (polyethylene bag + composite film bag) to meet illumination requirements, and sampled for testing.
Illumination requirements: ICH Q1B Stability Testing: Photostability Testing of New Drug Substances and Products.
Determination of related substances: determined according to 0512 HPLC in General Principle (Volume IV) of Chinese Pharmacopoeia (2015 Version).
Moisture determination: determined according to 2 Coulometric Titration in the First Method (Karl Fischer titration) of 0832 Moisture Determination Method in General Principle (Volume IV) of Chinese Pharmacopoeia (2015 Version).
XRD determination: determined according to the Second Method-Powder X-ray Diffraction Method of 0451 X-ray Diffraction Method in General Principle (Volume IV) of Chinese Pharmacopoeia (2015 Version).
DSC determination: precisely weighing an appropriate amount of sample in a Standard disc, covering the Standard disc, placing the Standard disc in a sample disc position in a DSC furnace, placing a blank disc of the same type in a reference position, and carrying out the following temperature rise program:
1. Equilibrate at 25° C.; and
as §1, with “B” for “A”
as §1, with “C” for “A”
1. Equilibrate at 25° C.; and 2. Ramp 10° C. to 200° C.
as §1, with “D” for “A”
as §1, with “amorphous” for “crystal”, “form” for “form A”, “(1):” for “(1): • placed at 105° C. for 5 days, opened, and sampled for testing on day 5;”

[1] = 25° C., RH 92.5%, closed, 10 days
[2] = 25° C., RH 92.5%, opened, 10 days

- Moisture % (0 day): 0.70%
- Total related % (0 day): 0.21%
- Trait (0 day): Off-white power
- Moisture % [1]: 2.8%
- Total related % [1]: 0.35%
- Trait [1]: Off-white power
- Moisture % [2]: 3.1%
- Total related % [2]: 0.38%
- Trait [2]: Off-white power
- Moisture % (40° C., RH 75%, closed, 1 M): 2.1%
- Total related % (40° C., RH 75%, closed, 1 M): 2.98%
- Trait (40° C., RH 75%, closed, 1 M): Off-white power
- Moisture % (40° C., RH 75%, opened, 1 M): 1.9%
- Total related % (40° C., RH 75%, opened, 1 M): 2.86%
- Trait (40° C., RH 75%, opened, 1 M): Off-white power
- Moisture % (60° C., closed, 10 days): 0.73%
- Total related % (60° C., closed, 10 days): 3.92%
- Trait (60° C., closed, 10 days): Off-white power
- Moisture % (60° C., opened, 10 days): 0.56%
- Total related % (60° C., opened, 10 days): 4.30%
- Trait (60° C., opened, 10 days): Off-white power
- Moisture % (Avoid light for 18 days): 1.26%
- Total related % (Avoid light for 18 days): 0.42%
- Trait (Avoid light for 18 days): Off-white power
SMILES: C[C@H]1CCN1c1nc(N2C[C@@H]3[C@@H](CC(=O)O)[C@@H]3C2)c2c(n1)C(F)(F)CC2 [Amorphous form, 2-((1R,5S,6R)-3-(7,7-difluoro-2-((S)-2-methylazetidin-1-yl)-6,7-dihydro-5H-cyclopenta[d]pyrimidin-4-yl)-3-azabicyclo[3.1.0]hexan-6-yl)acetic acid]
- Stability, testing conclusion: less stable than that of the crystal form A, the crystal form B, the crystal form C and the crystal form D

- DSC (0 day): 170.33 °C
- Moisture % (0 day): 0.53%
- Total related % (0 day): 0.18%
- Trait (0 day): Off-white power
- DSC [1]: 170.42 °C
- Moisture % [1]: 0.54%
- Total related % [1]: 0.24%
- Trait [1]: Off-white power
- XRD [1]: Same as day 0
- DSC [2]: 170.23 °C
- Moisture % [2]: 0.54%
- Total related % [2]: 0.24%
- Trait [2]: Off-white power
- XRD [2]: Same as day 0
- DSC (40° C., RH 75%, closed, 1 M): 170.38 °C
- Moisture % (40° C., RH 75%, closed, 1 M): 0.57%
- Total related % (40° C., RH 75%, closed, 1 M): 0.22%
- Trait (40° C., RH 75%, closed, 1 M): Off-white power
- XRD (40° C., RH 75%, closed, 1 M): Same as day 0
- DSC (40° C., RH 75%, opened, 1 M): 170.32 °C
- Moisture % (40° C., RH 75%, opened, 1 M): 0.46%
- Total related % (40° C., RH 75%, opened, 1 M): 0.24%
- Trait (40° C., RH 75%, opened, 1 M): Off-white power
- XRD (40° C., RH 75%, opened, 1 M): Same as day 0
- DSC (60° C., closed, 10 days): 170.34 °C
- Moisture % (60° C., closed, 10 days): 0.61%
- Total related % (60° C., closed, 10 days): 0.24%
- Trait (60° C., closed, 10 days): Off-white power
- XRD (60° C., closed, 10 days): Same as day 0
- DSC (60° C., opened, 10 days): 170.26 °C
- Moisture % (60° C., opened, 10 days): 0.54%
- Total related % (60° C., opened, 10 days): 0.25%
- Trait (60° C., opened, 10 days): Off-white power
- XRD (60° C., opened, 10 days): Same as day 0
- DSC (105° C., opened, 5 days): 170.65 °C
- Moisture % (105° C., opened, 5 days): 0.54%
- Total related % (105° C., opened, 5 days): 0.30%
- Trait (105° C., opened, 5 days): Off-white power
- XRD (105° C., opened, 5 days): Same as day 0
- DSC (Avoid light for 18 days): 170.20 °C
- Moisture % (Avoid light for 18 days): 0.47%
- Total related % (Avoid light for 18 days): 0.19%
- Trait (Avoid light for 18 days): Off-white power
- XRD (Avoid light for 18 days): Same as day 0
- Stability, testing conclusion: relatively stable
SMILES: C[C@H]1CCN1c1nc(N2C[C@@H]3[C@@H](CC(=O)O)[C@@H]3C2)c2c(n1)C(F)(F)CC2 [Crystal form A, 2-((1R,5S,6R)-3-(7,7-difluoro-2-((S)-2-methylazetidin-1-yl)-6,7-dihydro-5H-cyclopenta[d]pyrimidin-4-yl)-3-azabicyclo[3.1.0]hexan-6-yl)acetic acid]

- DSC (0 day): 169.28 °C
- Moisture % (0 day): 0.17%
- Total related % (0 day): 0.08%
- Trait (0 day): White powder
- DSC [1]: 169.47 °C
- Moisture % [1]: 0.35%
- Total related % [1]: 0.10%
- Trait [1]: White powder
- XRD [1]: Same as day 0
- DSC [2]: 169.31 °C
- Moisture % [2]: 0.26%
- Total related % [2]: 0.10%
- Trait [2]: White powder
- XRD [2]: Same as day 0
- DSC (40° C., RH 75%, closed, 1 M): 169.57 °C
- Moisture % (40° C., RH 75%, closed, 1 M): 0.39%
- Total related % (40° C., RH 75%, closed, 1 M): 0.08%
- Trait (40° C., RH 75%, closed, 1 M): White powder
- XRD (40° C., RH 75%, closed, 1 M): Same as day 0
- DSC (40° C., RH 75%, opened, 1 M): 169.43 °C
- Moisture % (40° C., RH 75%, opened, 1 M): 0.35%
- Total related % (40° C., RH 75%, opened, 1 M): 0.09%
- Trait (40° C., RH 75%, opened, 1 M): White powder
- XRD (40° C., RH 75%, opened, 1 M): Same as day 0
- DSC (60° C., closed, 10 days): 169.35 °C
- Moisture % (60° C., closed, 10 days): 0.21%
- Total related % (60° C., closed, 10 days): 0.11%
- Trait (60° C., closed, 10 days): White powder
- XRD (60° C., closed, 10 days): Same as day 0
- DSC (60° C., opened, 10 days): 169.27 °C
- Moisture % (60° C., opened, 10 days): 0.26%
- Total related % (60° C., opened, 10 days): 0.13%
- Trait (60° C., opened, 10 days): White powder
- XRD (60° C., opened, 10 days): Same as day 0
- DSC (105° C., opened, 5 days): 169.53 °C ° C.
- Moisture % (105° C., opened, 5 days): 0.28%
- Total related % (105° C., opened, 5 days): 0.22%
- Trait (105° C., opened, 5 days): White powder
- XRD (105° C., opened, 5 days): Same as day 0
- DSC (Avoid light for 18 days): 169.15 °C
- Moisture % (Avoid light for 18 days): 0.17%
- Total related % (Avoid light for 18 days): 0.07%
- Trait (Avoid light for 18 days): White powder
- XRD (Avoid light for 18 days): Same as day 0
- Stability, testing conclusion: relatively stable
SMILES: C[C@H]1CCN1c1nc(N2C[C@@H]3[C@@H](CC(=O)O)[C@@H]3C2)c2c(n1)C(F)(F)CC2 [Crystal form B, 2-((1R,5S,6R)-3-(7,7-difluoro-2-((S)-2-methylazetidin-1-yl)-6,7-dihydro-5H-cyclopenta[d]pyrimidin-4-yl)-3-azabicyclo[3.1.0]hexan-6-yl)acetic acid]

- DSC (0 day): 172.44 °C
- Moisture % (0 day): 0.24%
- Total related % (0 day): 1.25%
- Trait (0 day): Off-white power
- DSC [1]: 172.36 °C
- Moisture % [1]: 0.09%
- Total related % [1]: 1.06%
- Trait [1]: Off-white power
- XRD [1]: Same as day 0
- DSC [2]: 172.35 °C
- Moisture % [2]: 0.11%
- Total related % [2]: 1.07%
- Trait [2]: Off-white power
- XRD [2]: Same as day 0
- DSC (40° C., RH 75%, closed, 1 M): 172.36 °C
- Moisture % (40° C., RH 75%, closed, 1 M): 0.19%
- Total related % (40° C., RH 75%, closed, 1 M): 1.30%
- Trait (40° C., RH 75%, closed, 1 M): Off-white power
- XRD (40° C., RH 75%, closed, 1 M): Same as day 0
- DSC (40° C., RH 75%, opened, 1 M): 172.35 °C
- Moisture % (40° C., RH 75%, opened, 1 M): 0.13%
- Total related % (40° C., RH 75%, opened, 1 M): 1.31%
- Trait (40° C., RH 75%, opened, 1 M): Off-white power
- XRD (40° C., RH 75%, opened, 1 M): Same as day 0
- DSC (60° C., closed, 10 days): 172.21 °C
- Moisture % (60° C., closed, 10 days): 0.08%
- Total related % (60° C., closed, 10 days): 2.20%
- Trait (60° C., closed, 10 days): Off-white power
- XRD (60° C., closed, 10 days): Same as day 0
- DSC (60° C., opened, 10 days): 172.21 °C
- Moisture % (60° C., opened, 10 days): 0.08%
- Total related % (60° C., opened, 10 days): 2.09%
- Trait (60° C., opened, 10 days): Off-white power
- XRD (60° C., opened, 10 days): Same as day 0
- Total related substances, change (105° C. for 5 days and 60° C. for 10 days): slightly increased
- DSC (105° C., opened, 5 days): 171.85 °C
- Moisture % (105° C., opened, 5 days): 0.24%
- Total related % (105° C., opened, 5 days): 1.77%
- Trait (105° C., opened, 5 days): Off-white power
- XRD (105° C., opened, 5 days): Same as day 0
- DSC (Avoid light for 18 days): 172.42 °C
- Moisture % (Avoid light for 18 days): 0.13%
- Total related % (Avoid light for 18 days): 1.25%
- Trait (Avoid light for 18 days): Off-white power
- XRD (Avoid light for 18 days): Same as day 0
- Related substances, content, moisture, and XRD stability (opened/closed, 25° C. and RH 92.5% for 10 days, 40° C. and RH 75% for one month): good
SMILES: C[C@H]1CCN1c1nc(N2C[C@@H]3[C@@H](CC(=O)O)[C@@H]3C2)c2c(n1)C(F)(F)CC2 [Crystal form C, 2-((1R,5S,6R)-3-(7,7-difluoro-2-((S)-2-methylazetidin-1-yl)-6,7-dihydro-5H-cyclopenta[d]pyrimidin-4-yl)-3-azabicyclo[3.1.0]hexan-6-yl)acetic acid]
